Assay results from article PMC8763243, “Synthesis of Novel Suramin Analogs With Anti-Proliferative Activity via FGF1 and FGFRD2 Blockade” (Frontiers in Chemistry, 2022).
“And” between values parts separate entries of the source, which are not always exact repeats. Identical values can stand only once.

Key:
MCF-7 cells [1] = experiment: WST-1 assay, FGF1-stimulated cell proliferation; assay type: cell-based, human; details: serum-starved MCF-7, 100 nM FGF1, 100 nM, 500 nM and 1 µM of test substance, 48 h
Procedure: (§1) The water-soluble tetrazolium salt (WST-1) assay was performed to assess the effects of the compounds on cell proliferation and cytotoxicity. DMEM/F12 containing 10% FBS was used for the cell culture, and incubation was performed in 5% CO2 till the logarithmic growth phase was achieved. On the day before the experiment, the cells were trypsinized and seeded in a 96-well plate at a density of 5000 cells/well. For the FGF1-stimulated cell proliferation assay, the cells were then incubated for 24 h in a serum-free medium containing 0.1% bovine serum albumin (BSA). Serum-starved cells with or without a specified concentration of suramin, 14, 15, 17, 18, 21, and FGFRD2 were stimulated with 100 nM of FGF1 again for 48 h. For the purpose of the cytotoxicity assay, the cells were treated with an increased concentration of suramin and compounds 14, 17, 15, 18, and 21 (Figure 6) for 48 h. Also, 1/10 of the volume of WST-1 cell reagent was inserted in every well and maintained at 37°C for another 4 h before harvesting. There was gentle agitation of the medium in the cell culture plate for 10 min using a shaker. A Synergy 2 microplate reader (BioTek Instruments, Inc., VT, United States) was used to measure the absorbance at 450 nm. The relative absorbance was compared with the control treatment to determine the relative cell number.
Cell proliferation was measured using the WST-1 assay. […]

FGF1 = biological target: T1, FGF1 (Homo sapiens, UniProt P05230); experiment: Fluorescence spectroscopy binding constant of FGF1 and suramin derivatives; details: fluorescence quenching, 5 µM FGF1, non-linear regression with Stern–Volmer equation, pH 6.5
T1 construct: made in house
Procedure: The binding constant Kd was calculated for FGF1 and the five derivatives in a buffer containing 10% D2O, 50 mM AMS, 20 mM phosphate buffer, and 50 mM NaCl at pH 6.5 using an F-2500 Hitachi fluorescence spectrophotometer.
[…] has tremendous significance for biochemical application because it provides valuable knowledge about the probability of quencher activity. The anti-mitogenic activity of the five compounds was achieved by the same mechanism in which suramin inhibits the mitogenic activity of FGF1. A non-linear regression curve was plotted for the relative intensities of activity versus drug concentration using the Stern–Volmer equation (Eq. 1). log(F0−F)/F=logK+nlog[Q], (1)
where F0 represents the fluorescence intensity in the absence of the compounds, and F represents the fluorescence intensity in the presence of the [Q] concentration of the compounds.
Increasing concentrations of these five suramin derivatives were added to a solution containing 5 µM FGF1. A reduction in the fluorescence intensity was reported for all five suramin derivatives. The Stern–Volmer equation was used to calculate the binding constant between FGF1 and compounds 14, 15, 17, 18, and 21 for relative intensities versus the total concentration in a non-linear regression curve.

[2] = WST-1 assay, cytotoxicity in tumorigenic cells; assay type: cell-based, human; details: human; MCF-7 cells, 48 h, SigmaPlot; read-out: estimated IC50 (cytotoxicity)
Procedure: as §1
(§2) […] […] The reason for the higher cytotoxicity was the presence of methyl groups on the suramin structure ([Martello et al., 2001]).
(§3) Suramin-induced neuropathy may depend on the effects on calcium (Ca^2+) homeostasis as a potential pathological mechanism, and the full or partial positive charge of the element when directly attached to the ring at each of the sulphonic groups (HSO3). These interactions exert a moderate to strong electron-withdrawing inductive effect, which may be responsible for the observed suramin cytotoxicity ([Prasetyaningrum et al., 2018]; [Von Der Ahe et al., 2018]). The cytotoxicity of the synthesized analogs was lower as there were methyl groups and no sulfonic acid groups attached to the suramin backbone. The IC50 values of the synthesized compounds in MCF-7 breast cancer cells were analyzed using SigmaPlot software.

MCF-7 cells [3] = experiment: WST-1 assay, cytotoxicity in tumorigenic cells; assay type: cell-based, human; details: for Mean (Blank 450) / Fold (mean) / Blank 450 / Fold: S8; for Fold (mean): relative to control; for Blank 450: single replicate absorbance; for Fold: single replicate relative to control; for cytotoxicity compared with suramin: MCF-7 cells, 1-100 µM, 48 h, especially at concentrations higher than 10 µM
Procedure: as §1, §2, §3

[4] = WST-1 assay, cytotoxicity in normal breast epithelial cell line (non-tumorigenic); assay type: cell-based; details: human; non-tumorigenic MCF-10A cells; read-out: estimated IC50 (cytotoxicity)
Procedure: as §1
In order to gain some insight about the selectivity of the compounds between tumorigenic and non-tumorigenic cells, the cytotoxicity was also being evaluated against normal breast cell lines by examining the cytotoxicity of suramin and its derivatives, compounds 15, 18, and 21, in a normal breast epithelial cell line (non-tumorigenic), MCF-10A. […] Compared to their cytotoxicity in tumorigenic MCF-7 cells (Figure 6), the estimated IC50 values in MCF-10A were higher than those in MCF-7 cells. […] However, the estimated IC50 value of suramin and its derivatives in both non-tumorigenic MCF-10A and tumorigenic MCF-7 cells were over 100 μM. The effective concentrations of suramin and its derivatives to attenuate FGF1-stimulated cell proliferation in MCF-7 cells were around 1 μM (Figure 5), which is non-toxic concentration to both MCF-7 cells and MCF-10A cells. […] Therefore, in addition to the specificity of each drug, the selectivity of suramin and its derivatives to disrupt the FGF1/FGFR-mediated breast cancer growth might rely on the overexpression or amplification of FGFR2 in breast cancer cells, but not in normal cells, and the secreted FGF1 ligand by autocrine or paracrine effects from cancer cells or their surrounding stroma cells or adipocytes (tumor microenvironment). The statistical data for the cytotoxicity are shown in Supplementary Figure S8.

T1 sequence (P05230 whole entry): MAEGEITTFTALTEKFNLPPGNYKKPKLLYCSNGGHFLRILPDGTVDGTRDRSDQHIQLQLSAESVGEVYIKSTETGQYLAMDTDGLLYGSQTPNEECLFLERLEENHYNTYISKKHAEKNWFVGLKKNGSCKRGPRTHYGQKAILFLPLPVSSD

SMILES	effect on FGF1-stimulated cell proliferation (MCF-7 cells [1])	Kd (FGF1)	IC50 at 48 h [2]	Mean (Blank 450) (MCF-7 cells [3]; 1 uM)	Fold (mean) (MCF-7 cells [3]; 1 uM)	Blank 450 (MCF-7 cells [3]; 1 uM)	Fold (MCF-7 cells [3]; 1 uM)	Mean (Blank 450) (MCF-7 cells [3]; 5 uM)	Fold (mean) (MCF-7 cells [3]; 5 uM)	Blank 450 (MCF-7 cells [3]; 5 uM)	Fold (MCF-7 cells [3]; 5 uM)	Mean (Blank 450) (MCF-7 cells [3]; 10 uM)	Fold (mean) (MCF-7 cells [3]; 10 uM)	Blank 450 (MCF-7 cells [3]; 10 uM)	Fold (MCF-7 cells [3]; 10 uM)	Mean (Blank 450) (MCF-7 cells [3]; 100 uM)	Fold (mean) (MCF-7 cells [3]; 100 uM)	Blank 450 (MCF-7 cells [3]; 100 uM)	Fold (MCF-7 cells [3]; 100 uM)	cytotoxicity compared with suramin (MCF-7 cells [3])	other results
O=C(Nc1ccc(C(=O)Nc2cccc3cc(S(=O)(=O)O)ccc23)cc1)Nc1ccc(C(=O)Nc2cccc3cc(S(=O)(=O)O)ccc23)cc1 [Compound 14, Sodium 5,5'-((4,4'-(carbonylbis (azanediyl))bis (benzoyl))bis (azanediyl)) bis (naphthalene-2-sulfonate)]	more potent inhibitory effects	13.7 µM	> 100 µM	0.231	1.03	0.248 and 0.227 and 0.205 and 0.242	1.113 and 1.019 and 0.920 and 1.086	0.225	1.01	0.219 and 0.241 and 0.23 and 0.208	0.983 and 1.082 and 1.033 and 0.934	0.211	0.95	0.206 and 0.193 and 0.225 and 0.218	0.925 and 0.866 and 1.010 and 0.979	0.198	0.89	0.209 and 0.195 and 0.181 and 0.208	0.938 and 0.875 and 0.813 and 0.934	less toxic	Mean (Blank 450) (MCF-7 cells [3]; 0.5 uM): 0.233; Fold (mean) (MCF-7 cells [3]; 0.5 uM): 1.04; Blank 450 (MCF-7 cells [3]; 0.5 uM): 0.228 and 0.253 and 0.244 and 0.205; Fold (MCF-7 cells [3]; 0.5 uM): 1.024 and 1.136 and 1.095 and 0.920
O=C(Nc1ccc(C(=O)Nc2ccc(C(=O)Nc3cccc4cc(S(=O)(=O)O)ccc34)cc2)cc1)Nc1ccc(C(=O)Nc2ccc(C(=O)Nc3cccc4cc(S(=O)(=O)O)ccc34)cc2)cc1 [Compound 17, Sodium 5,5'-((4,4'-((4,4'-(carbonylbis (azanediyl))bis (benzoyl))bis (azanediyl))bis (benzoyl))bis(azanediyl)) bis (naphthalene-2-sulfonate)]	more potent inhibitory effects	10.1 µM	> 100 µM	0.226	1.01	0.235 and 0.232 and 0.211 and 0.225	1.055 and 1.042 and 0.947 and 1.010	0.222	1.00	0.201 and 0.215 and 0.233 and 0.239	0.902 and 0.965 and 1.046 and 1.073	0.220	0.99	0.218 and 0.227 and 0.225 and 0.209	0.979 and 1.019 and 1.010 and 0.938	0.208	0.93	0.197 and 0.209 and 0.218 and 0.206	0.884 and 0.938 and 0.979 and 0.925	less toxic	Mean (Blank 450) (MCF-7 cells [3]; 0.5 uM): 0.233; Fold (mean) (MCF-7 cells [3]; 0.5 uM): 1.04; Blank 450 (MCF-7 cells [3]; 0.5 uM): 0.241 and 0.231 and 0.216 and 0.243; Fold (MCF-7 cells [3]; 0.5 uM): 1.082 and 1.037 and 0.970 and 1.091
O=C(Nc1ccc(C(=O)Nc2cc(S(=O)(=O)O)cc3cc(S(=O)(=O)O)cc(S(=O)(=O)O)c23)s1)Nc1ccc(C(=O)Nc2cc(S(=O)(=O)O)cc3cc(S(=O)(=O)O)cc(S(=O)(=O)O)c23)s1 [Compound 21, Sodium 8,8'-((5,5'-(carbonylbis (azanediyl))bis (thiophene-5,2-diyl-2-carbonyl))bis (azanediyl)) bis (naphthalene-1,3,6-trisulfonate)]	–	15.9 µM	> 100 µM	1.167	1.00	1.107 and 1.215 and 1.169 and 1.177	0.950 and 1.043 and 1.003 and 1.010	1.178	1.01	1.145 and 1.151 and 1.183 and 1.233	0.983 and 0.988 and 1.015 and 1.058	1.163	1.00	1.136 and 1.167 and 1.187 and 1.163	0.975 and 1.002 and 1.019 and 0.998	1.021	0.88	1.046 and 1.075 and 0.916	0.898 and 0.923 and 0.786	less toxic	Mean (Blank 450) (MCF-7 cells [3]; 50 uM): 1.124; Fold (mean) (MCF-7 cells [3]; 50 uM): 0.96; Blank 450 (MCF-7 cells [3]; 50 uM): 1.137 and 1.128 and 1.113 and 1.119; Fold (MCF-7 cells [3]; 50 uM): 0.976 and 0.968 and 0.955 and 0.960; IC50 at 48 h [4]: 628 ± 1.45 µM
Cc1ccc(C(=O)Nc2ccc(S(=O)(=O)O)c3cc(S(=O)(=O)O)cc(S(=O)(=O)O)c23)cc1NC(=O)c1cccc(NC(=O)Nc2cccc(C(=O)Nc3cc(C(=O)Nc4ccc(S(=O)(=O)O)c5cc(S(=O)(=O)O)cc(S(=O)(=O)O)c45)ccc3C)c2)c1 [suramin]	–	–	> 100 µM	1.211	1.04	1.289 and 1.186 and 1.173 and 1.197	1.106 and 1.018 and 1.007 and 1.027	1.160	1.00	1.137 and 1.217 and 1.147 and 1.138	0.976 and 1.044 and 0.984 and 0.977	1.116	0.96	1.187 and 1.064 and 1.159 and 1.052	1.019 and 0.913 and 0.995 and 0.903	0.817	0.70	0.795 and 0.82 and 0.838 and 0.816	0.682 and 0.704 and 0.719 and 0.700	highest among all the analogs	Mean (Blank 450) (MCF-7 cells [3]; 50 uM): 1.004; Fold (mean) (MCF-7 cells [3]; 50 uM): 0.86; Blank 450 (MCF-7 cells [3]; 50 uM): 0.936 and 0.988 and 1.088 and 1.004; Fold (MCF-7 cells [3]; 50 uM): 0.803 and 0.848 and 0.934 and 0.862; IC50 at 48 h [4]: 222 ± 2.4 µM
